Patent US6479531B1, “Gastrin and cholecystokinin receptor ligands” (James Black Foundation Limited, priority 1998, dated 2002)

These compounds were tested against T1, gastrin receptor (Rattus norvegicus, UniProt P30553) (assay: gastrin antagonist activity in immature rat stomach assay (pentagastrin dose-response, acid secretion)). Settings: isolated immature rat stomach, cumulative pentagastrin dose-response curves.
T1 construct: The stomach was excised and flushed with ca. 1 ml of unbuffered physiological saline solution; from tissue; host or cells: isolated whole stomach of immature rats (ca. 21 days old)
T1 sequence (P30553 1-452): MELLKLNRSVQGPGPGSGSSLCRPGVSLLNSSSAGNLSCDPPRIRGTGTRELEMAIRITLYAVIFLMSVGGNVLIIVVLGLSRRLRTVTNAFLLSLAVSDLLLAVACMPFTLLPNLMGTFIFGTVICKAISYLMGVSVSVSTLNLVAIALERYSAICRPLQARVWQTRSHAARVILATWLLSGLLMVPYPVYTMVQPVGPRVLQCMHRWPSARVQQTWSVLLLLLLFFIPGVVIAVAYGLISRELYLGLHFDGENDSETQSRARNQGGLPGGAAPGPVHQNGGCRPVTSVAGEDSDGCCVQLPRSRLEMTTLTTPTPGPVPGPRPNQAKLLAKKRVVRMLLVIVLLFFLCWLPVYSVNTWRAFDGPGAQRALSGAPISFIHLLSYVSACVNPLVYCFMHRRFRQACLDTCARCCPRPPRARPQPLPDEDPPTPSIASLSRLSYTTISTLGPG
Experimental: The compounds of the examples were also tested for gastrin antagonist activity in an immature rat stomach assay. The procedure was as follows:
The oesophagus of immature rats (33-50 g, ca. 21 days old) was ligated at the level of the cardiac sphincter and the duodenal sphincter was cannulated. The stomach was excised and flushed with ca. 1 ml of unbuffered physiological saline solution. The fundus was punctured and cannulated. A further 4-5 ml of unbuffered solution was flushed through the stomach to ensure the preparation was not leaking. The stomach was lowered into a jacketed organ bath containing 40 ml of buffered solution containing 3×10^−8 M 5-methylfurmethide, maintained at 37° and gassed vigorously with 95% O2/5% CO2. The stomach was continuously perfused at a rate of 1 ml min^−1 with unbuffered solution gassed with 100% O2 with the perfusate passing over an internally referenced pH-electrode fixed 12 cm above the stomach.
After 120 min of stabilisation the drugs were added directly to the serosal solution in the organ bath and after a further 60 min cumulative pentagastrin dose-response curves were started. Changes in acid secretion were monitored and the curves analysed according to Black et al., Br. J. Pharmacol., 1985, 86, 581.
For `Cc1ccc(NC(=O)c2nc(C3CCCCC3)[nH]c2CCC23CC4CC(CC(C4)C2)C3)cc1C(=O)O` [Example 107], the “Gastrin pKb” value was 7.65. In the case of `O=C(O)c1cccc(NC(=O)c2nc([C@H]3CC4CC[C@H]3C4)[nH]c2COC23CC4CC(CC(C4)C2)C3)c1` [Example 291, endo-3-{[5-(Adamantan-1-yloxymethyl)-2-((1S,2S)-bicyclo[2.2.1]hept-2-yl)-1H-imidazole-4-carbonyl]-amino}-benzoic Acid], the “Gastrin pKb” value is reported as 9.12. In the case of `O=C(O)c1cccc(NC(=O)c2nc([C@@H]3CC4CC[C@@H]3C4)[nH]c2COC23CC4CC(CC(C4)C2)C3)c1` [Example 292, endo-3-{[5-(Adamantan-1-yloxymethyl)-2-((1R,2R)-bicyclo[2.2.1]hept-2-yl)-1H-imidazole-4-carbonyl]-amino}-benzoic Acid], the “Gastrin pKb” value is reported as 8.57.

Same assay, conditions: isolated immature rat stomach, cumulative pentagastrin dose-response curves, read-out: Gastrin pKb (converted)
`O=C(O)C=Cc1cc(NC(=O)c2nc(C3CCCCC3)[nH]c2CCC23CC4CC(CC(C4)C2)C3)ccc1Cl` [Example 269, 3-(5-{[5-(2-Adamantan-1-yl-ethyl)-2-cyclohexyl-1H-imidazole-4-carbonyl]-amino}-2-chloro-phenyl)-acrylic Acid] gave a Kb of 0.933 µM. In the case of `O=C(O)CCc1ccc(NC(=O)c2nc(C3CCCCC3)[nH]c2CCC23CC4CC(CC(C4)C2)C3)cc1` [Example 283, 3-(4-{[5-(2-Adamantan-1-yl-ethyl)-2-cyclohexyl-1H-imidazole-4-carbonyl]-amino}-phenyl)-propionic Acid], the Kb is reported as 1.15 µM. `O=C(O)c1cccc(NC(=O)c2nc(C3CCCCC3)[nH]c2CCC23CCC(CC2)CC3)c1` [Example 175, 3-{[5-(2-Bicyclo[2.2.2]oct-1-yl-ethyl)-2-cyclohexyl-1H-imidazole-4-carbonyl]-amino}-benzoic Acid] gave a Kb of 0.00295 µM. Work on `O=C(O)c1cccc(NC(=O)c2c(COC34CC5CC(CC(C5)C3)C4)nc(-c3c(Cl)cccc3Cl)n2O)c1` [Example 313, 3-{[5-(Adamantan-1-yloxymethyl)-2-(2,6-dichloro-phenyl)-3-hydroxy-3H-imidazole-4-carbonyl]-amino}-benzoic Acid] yielded a Kb of 0.0186 µM. `O=C(Nc1cccc(S(=O)(=O)O)c1)c1nc(C2CCCCC2)[nH]c1CCC12CC3CC(CC(C3)C1)C2` [Example 268, 3-{[5-(2-Adamantan-1-yl-ethyl)-2-cyclohexyl-1H-imidazole-4-carbonyl]-amino}-benzenesulfonic Acid] was tested, and the Kb was 0.224 µM. In the case of `CN1CCCCC1c1nc(C(=O)Nc2cccc(C(=O)O)c2)c(CCC23CC4CC(CC(C4)C2)C3)[nH]1` (racemic) [Example 139, (±)-3-{[5-(2-Adamantan-1-yl-ethyl)-2-(1-methyl-piperidin-2-yl)-1H-imidazole-4-carbonyl]-amino}-benzoic Acid], the Kb is reported as 0.0158 µM. `CC1(c2nc(C(=O)Nc3cccc(C(=O)O)c3)c(COC34CC5CC(CC(C5)C3)C4)[nH]2)CCCCC1` [Example 303, 3-{[5-(Adamantan-1-yloxymethyl)-2-(1-methyl-cyclohexyl)-1H-imidazole-4-carbonyl]-amino}-benzoic Acid] showed a Kb of 0.0117 µM. In the case of `Cc1ccccc1-c1nc(CCC23CC4CC(CC(C4)C2)C3)c(CCc2cccc(C(=O)O)c2)n1C` [Example 277, 3-{2-[5-(2-Adamantan-1-yl-ethyl)-3-methyl-2-o-tolyl-3H-imidazol-4-yl]-ethyl}-benzoic Acid], the Kb is reported as 1 µM. `Cc1ccccc1-c1nc(C(=O)Oc2cccc(C(=O)O)c2)c(CCC23CC4CC(CC(C4)C2)C3)[nH]1` [Example 281, 5-(2-Adamantan-1-yl-ethyl)-2-o-tolyl-1H-imidazole-4-carboxylic Acid 3-carboxy-phenyl Ester] showed a Kb of 2.09 µM. Work on `O=C(O)Cc1c(F)ccc(NC(=O)c2nc(C3CCCCC3)[nH]c2CCC23CC4CC(CC(C4)C2)C3)c1F` [Example 270, (3-{[5-(2-Adamantan-1-yl-ethyl)-2-cyclohexyl-1H-imidazole-4-carbonyl]-amino}-2,6-difluoro-phenyl)-acetic Acid] yielded a Kb of 0.195 µM. Work on `O=C(O)c1cc(NC(=O)c2nc(C3CCCCC3)[nH]c2COC23CC4CC(CC(C4)C2)C3)ccc1F` [Example 299, 5-{[5-(Adamantan-1-yloxymethyl)-2-cyclohexyl-1H-imidazole-4-carbonyl]-amino}-2-fluoro-benzoic Acid] yielded a Kb of 0.0204 µM. Compound `O=C(O)CNS(=O)(=O)c1cccc(NC(=O)c2nc(C3CCCCC3)[nH]c2CCC23CC4CC(CC(C4)C2)C3)c1` [Example 262, (3-{[5-(2-Adamantan-1-yl-ethyl)-2-cyclohexyl-1H-imidazole-4-carbonyl]-amino}-benzenesulfonylamino)-acetic Acid] has a Kb of 0.224 µM. Work on `C[C@@H](NC(=O)c1cccc(NC(=O)c2nc(C3CCCCC3)[nH]c2CCC23CC4CC(CC(C4)C2)C3)c1)C(=O)O` [Example 273, (R)-2-(3-{[5-(2-Adamantan-1-yl-ethyl)-2-cyclohexyl-1H-imidazole-4-carbonyl]-amino}-benzoylamino)-propionic Acid] yielded a Kb of 0.049 µM. With `O=C(O)c1cccc(OC(=O)c2nc(C3CCCCC3)[nH]c2CCC23CC4CC(CC(C4)C2)C3)c1` [Example 282, 5-(2-Adamantan-1-yl-ethyl)-2-cyclohexyl-1H-imidazole-4-carboxylic Acid 3-carboxy-phenyl Ester] the Kb was 0.708 µM. With `Cc1c(NC(=O)c2nc(C34CCC(CC3)CC4)[nH]c2COC23CC4CC(CC(C4)C2)C3)cccc1C(=O)O` [Example 222, 3-{[5-(Adamantan-1-yloxymethyl)-2-bicyclo[2.2.2]oct-1-yl-1H-imidazole-4-carbonyl]-amino}-2-methyl-benzoic Acid] the Kb was 0.0204 µM. `O=C(O)c1cccc(NC(=O)c2nc(C3CCOCC3)[nH]c2COC23CC4CC(CC(C4)C2)C3)c1` [Example 233, 3-{[5-(Adamantan-1-yloxymethyl)-2-(tetrahydro-pyran-4-yl)-1H-imidazole-4-carbonyl]-amino}-benzoic Acid] showed a Kb of 0.0708 µM. Work on `O=C(O)c1cccc(NC(=O)c2nc(C3C4CCCC3CCC4)[nH]c2CCC23CC4CC(CC(C4)C2)C3)c1` (stereo not shown) [Example 208, 3-([5-(2-Adamantan-1-yl-ethyl)-2-bicyclo[3.3.1]non-9-yl-1H-imidazole-4-carbonyl]-amino}-benzoic Acid] yielded a Kb of 0.00347 µM. For `Cc1ccc(NC(=O)c2nc(C34CCC(CC3)CC4)[nH]c2COC23CC4CC(CC(C4)C2)C3)cc1C(=O)O` [Example 300, 5-{[5-(Adamantan-1-yloxymethyl)-2-bicyclo[2.2.2]oct-1-yl-1H-imidazole-4-carbonyl]-amino}-2-methyl-benzoic Acid], the Kb was 0.00302 µM. For `O=C(O)CCc1c(F)ccc(NC(=O)c2nc(C3CCCCC3)[nH]c2CCC23CC4CC(CC(C4)C2)C3)c1F` [Example 284, 3-(3-{[5-(2-Adamantan-1-yl-ethyl)-2-cyclohexyl-1H-imidazole-4-carbonyl]-amino}-2,6-difluoro-phenyl)-propionic Acid], the Kb was 0.0977 µM. Compound `Cc1ccc(NC(=O)c2nc(C3CCCCCC3)[nH]c2COC23CC4CC(CC(C4)C2)C3)cc1C(=O)O` [Example 296, 5-{[5-(Adamantan-1-yloxymethyl)-2-cycloheptyl-1H-imidazole-4-carbonyl]-amino}-2-methyl-benzoic Acid] has a Kb of 0.00209 µM. For `CCOC(=O)Cn1c(-c2ccccc2C)nc(C(=O)Nc2cccc(C(=O)O)c2)c1CCC12CC3CC(CC(C3)C1)C2` [Example 250, 3-{[5-(2-Adamantan-1-yl-ethyl)-1-ethoxycarbonylmethyl-2-o-tolyl-1H-imidazole-4-carbonyl]-amino}-benzoic Acid], the Kb was 0.186 µM. Work on `O=C(O)c1cccc(NC(=O)c2c(COC34CC5CC(CC(C5)C3)C4)nc(C3CCCCC3)n2O)c1` [Example 308, 3-{[5-(Adamantan-1-yloxymethyl)-2-cyclohexyl-3-hydroxy-3H-imidazole-4-carbonyl]-amino}-benzoic Acid] yielded a Kb of 0.0186 µM. For `Cc1ccccc1-c1nc(CCc2cccc(C(=O)O)c2)c(CCC23CC4CC(CC(C4)C2)C3)n1C` [Example 278, 3-{2-[5-(2-Adamantan-1-yl-ethyl)-1-methyl-2-o-tolyl-1H-imidazol-4-yl]-ethyl}-benzoic Acid], the Kb was 0.0646 µM. Compound `Cn1c(C2CCCCC2)nc(C(=O)Nc2cccc(C(=O)O)c2)c1CCC12CC3CC(CC(C3)C1)C2` [Example 214, 3-{[5-(2-Adamantan-1-yl-ethyl)-2-cyclohexyl-1-methyl-1H-imidazole-4-carbonyl]-amino}-benzoic Acid] has a Kb of 0.0102 µM. `O=C(O)c1cccc(NC(=O)c2nc(C3(CO)CCCCC3)[nH]c2CCC23CC4CC(CC(C4)C2)C3)c1` [Example 204, 3-{[5-(2-Adamantan-1-yl-ethyl)-2-(1-hydroxymethyl-cyclohexyl)-1H-imidazole-4-carbonyl]-amino}-benzoic Acid] showed a Kb of 0.00575 µM.
